Results on two molecules are retold here after ChEMBL document CHEMBL6114949, “Synthesis and physiological effects of new 4-aminophenol derivatives as paracetamol analogues” (Bioorg Med Chem Lett, 2025).

Series [1] concerns Rattus norvegicus. Put plainly: Antinociceptive activity in zymosan-induced rat model of thermal nociceptive hypersensitivity assessed as nociceptive response inhibition at 80 mg/kg, ig administered once daily for 7 days and measured 1 hr post-zymosan challenge on day 7 by hot-plate test (reference value: -42.4%). It counts as functional. The following applies: po, 168 h, time 7 day. (Thermal pain tests record how soon the animal reacts.)

Series [2] relates to Rattus norvegicus. Put plainly: Antipyretic activity against LPS-induced polyphasic febrile response in rats assessed as change in core body temperature at 80 mg/kg, po treated 40 mins prior to LPS addition and measured after 10 mins during phase 1 (reference value: 0.85 deg C). Particulars: time 50.0 min. It counts as functional, organism-based.
Series [3] deals with Rattus norvegicus. Put plainly: Antipyretic activity against LPS-induced polyphasic febrile response in rats assessed as return of body temperature to background value at 80 mg/kg, po treated 40 mins prior to LPS addition and measured after 245 mins. Particulars: time 285.0 min. It counts as functional, organism-based.
Series [4] relates to Rattus norvegicus. Put plainly: Antinociceptive activity in zymosan-induced rat arthritis model assessed as nociceptive response inhibition at 80 mg/kg, ig administered once daily for 7 days and measured 1 hr post-zymosan challenge on day 7 by Randall-Selitto test (reference value: -34.6%). It counts as functional. The following applies: po, 168 h, time 7 day.
The nature of series [5]: Hepatotoxicity in zymosan-induced rat arthritis model assessed as effect on sinusoids arrangement at 150 mg/kg, ig administered once daily for 7 days by hematoxylin-eosin staining based histological analysis. It counts as toxicity, organism-based, Liver. The following applies: in vivo, po, 168 h, time 7 day.
A short description of series [6]: Hepatotoxicity in zymosan-induced rat arthritis model assessed as effect on beam structure of liver at 150 mg/kg, ig administered once daily for 7 days by hematoxylin-eosin staining based histological analysis. It counts as toxicity, organism-based. The following applies: in vivo, po, 168 h, time 7 day.
Series [7] is described as follows: Hepatotoxicity in zymosan-induced rat arthritis model assessed as change in shape of liver portal tracts at 150 mg/kg, ig administered once daily for 7 days by hematoxylin-eosin staining based histological analysis. It counts as toxicity, organism-based. The following applies: in vivo, po, 168 h, time 7 day.
A short description of series [8]: Hepatotoxicity in zymosan-induced rat arthritis model assessed as disruption of hepatocyte membrane at 150 mg/kg, ig administered once daily for 7 days by hematoxylin-eosin staining based histological analysis. Particulars: in vivo, po, 168 h, time 7 day. It counts as toxicity, organism-based, Liver.
Series [9] in a line: Hepatotoxicity in zymosan-induced rat arthritis model assessed as effect on sinusoids elongation at 150 mg/kg, ig administered once daily for 7 days by hematoxylin-eosin staining based histological analysis. It counts as toxicity, organism-based, Liver. Particulars: in vivo, po, 168 h, time 7 day.
A short description of series [10]: Hepatotoxicity in zymosan-induced rat arthritis model assessed as change in hepatocyte shape at 150 mg/kg, ig administered once daily for 7 days by hematoxylin-eosin staining based histological analysis. Particulars: in vivo, po, 168 h, time 7 day. It counts as toxicity, organism-based, Liver.
Series [11] in a line: Hepatotoxicity in zymosan-induced rat arthritis model assessed as change in hepatocyte karyoplasm at 150 mg/kg, ig administered once daily for 7 days by hematoxylin-eosin staining based histological analysis. It counts as toxicity, organism-based, Liver. Particulars: in vivo, po, 168 h, time 7 day.
Series [12] can be described thus: Hepatotoxicity in zymosan-induced rat arthritis model assessed as change in hepatocyte nucleus size at 150 mg/kg, ig administered once daily for 7 days by hematoxylin-eosin staining based histological analysis. It counts as toxicity, organism-based, Liver. The following applies: in vivo, po, 168 h, time 7 day.
Series [13] can be described thus: Hepatotoxicity in zymosan-induced rat arthritis model assessed as change in hepatocyte cytoplasmic appearance at 150 mg/kg, ig administered once daily for 7 days by hematoxylin-eosin staining based histological analysis. It counts as toxicity, organism-based, Liver. The following applies: in vivo, po, 168 h, time 7 day.
Series [14] relates to Rattus norvegicus. Put plainly: Antipyretic activity against LPS-induced polyphasic febrile response in rats assessed as suppression of rise in core body temperature at 150 mg/kg, po treated 40 mins prior to LPS addition and measured after 160 mins relative to control. It counts as functional. Particulars: time 200 min, 3.333 h.
Series [15] in a line: Hepatotoxicity in zymosan-induced rat arthritis model assessed as appearance of vacuoles in hepatocyte cytoplasm at 150 mg/kg, ig administered once daily for 7 days by hematoxylin-eosin staining based histological analysis. The following applies: in vivo, po, 168 h, time 7 day. It counts as toxicity, organism-based, Liver.
Series [16] concerns Rattus norvegicus. Put plainly: Antinociceptive activity in zymosan-induced rat model of thermal nociceptive hypersensitivity assessed as nociceptive response inhibition at 150 mg/kg, ig administered once daily for 7 days and measured 1 hr post-zymosan challenge on day 7 by hot-plate test (reference value: -42.4%). It counts as functional. Particulars: po, 168 h, time 7 day.

The subject of series [17] is Rattus norvegicus. Put plainly: Antipyretic activity against LPS-induced polyphasic febrile response in rats assessed as change in core body temperature at 150 mg/kg, po treated 40 mins prior to LPS addition and measured after 160 mins during phase 1 (reference value: 0.85 deg C). It counts as functional. The following applies: time 200 min, 3.333 h.
Series [18] relates to Rattus norvegicus. Put plainly: Antinociceptive activity in zymosan-induced rat arthritis model assessed as nociceptive response inhibition at 150 mg/kg, ig administered once daily for 7 days and measured 1 hr post-zymosan challenge on day 7 by Randall-Selitto test (reference value: -34.6%). Particulars: po, 168 h, time 7 day. It counts as functional.
Series [19] deals with Rattus norvegicus. Put plainly: Antipyretic activity against LPS-induced polyphasic febrile response in rats assessed as return of body temperature to background value at 150 mg/kg, po treated 40 mins prior to LPS addition and measured after 235 mins. The following applies: time 275.0 min. It counts as functional, organism-based.
Series [20] in a line: Hepatotoxicity in zymosan-induced rat arthritis model assessed as change in shape of liver central veins at 150 mg/kg, ig administered once daily for 7 days by hematoxylin-eosin staining based histological analysis. It counts as toxicity, organism-based. Particulars: in vivo, po, 168 h, time 7 day.
Series [21] in a line: Hepatotoxicity in zymosan-induced rat arthritis model assessed as effect on general architecture of liver at 150 mg/kg, ig administered once daily for 7 days by hematoxylin-eosin staining based histological analysis. It counts as toxicity, organism-based. The following applies: in vivo, po, 168 h, time 7 day.

Molecules are shown by their SMILES. Calls of active or inactive are those of the source. The rule behind the calls is not given here.

Regarding `CC(=O)Nc1ccc(O)cc1` [ACETAMINOPHEN], the inhibition in vivo (in general, how much of the control response was suppressed) at 80 mg/kg in series [1] is 53%; in [4], 28.5%. The ΔTm (as a rule, the change in melting temperature against a reference sample) in [2] worked out at 0.34 °C. Moreover, the outcome in [3] was Active.

Take `CCCCCCCC(=O)Nc1ccc(OCC(=O)O)cc1`: the Activity entry in series [5], in series [6], in series [7], in series [8], in series [9] and in series [10] was “Non-toxic” throughout. For the same molecule, the Activity result in [11], in [12], in [13], in series [15], in series [20] and in [21] was “Non-toxic” each time. Further, the “fold change (FC)” value in series [14] was 3. Moreover, the inhibition in vivo at 150 mg/kg turned out to be 8.5% in [16] and 21.3% in series [18]. The T in [17] amounted to 0.28 °C. For the same molecule, the outcome in series [19] was Active.
